Patent US9901615B2, “Method for treatment of gastric ulcers” (priority 2015, dated 2018)
Where no end group is shown, it is not given here.

How the values were obtained:
H. pylori [1] = experiment: Development of drug resistance on passage at sub-inhibitory doses; assay type: cell-based, Helicobacter pylori; details: passages at sub-inhibitory doses in vitro
From the text: A major driver of drug resistance development is inappropriate antibiotic use and poor compliance with therapeutic regimens. 28 Here, we established a model for simulating conditions of drug resistance emergence: bacteria were exposed to sub-inhibitory doses of antibiotics (AMOX, CLRN, METZ), or peptide TP4 in vitro (see supplementary material methods).

[2] = tested on: resistant clinical isolate CI-HC-028; experiment: Time-based susceptibility of resistant isolate to TP4 and antibiotics; assay type: cell-based, Helicobacter pylori; details: CI-HC-028, at MIC
Description: (§1) TP4 peptide solutions (100 μl) at concentrations corresponding to ¼, ½, 1, 2, and 4 fold the MIC were prepared and added to an equal volume of solution containing H. pylori counts of approximately 10^7 CFU mL-1 onto a microtitre plate. The plates were incubated at 37° C., and samples were collected at 1, 3, 6, 12, and 24 h and plated with appropriate dilutions onto blood agar plates; bacterial counts were enumerated and expressed as mean log (CFU mL-1) with standard error.
The bactericidal activities of TP4 and conventional antibiotics against resistant clinical isolate CI-HC-028 were compared. Certain resistant strains of H. pylori was previously reported to be resistant to metronidazole and clarithromycin 27. […] Thus, there is no correlation between multidrug resistant (MDR) phenotype and vulnerability to TP4.

H. pylori ATCC 700392 = assay type: cell-based, Helicobacter pylori
Description: (§2) H. pylori cells undergoing exponential growth were suspended in sterile phosphate-buffered saline (PBS), and adjusted to 0.05 OD using BHI broth; the inoculum was dispensed onto a microtitre plate. Peptide TP4 was prepared at various concentrations (0.04 to 50 μg mL-1) using PBS. Antibiotic resistant clinical isolate CI-HC-028 and three reference strains were used for susceptibility testing. The MIC was defined as the lowest concentration of the drug at which there was no visible growth. For quality control and comparative analyses, the susceptibility of all four H. pylori strains to the antibiotics amoxicillin, clarithromycin, and metronidazole were also examined.

H. pylori ATCC 43504 = assay type: cell-based, Helicobacter pylori
Description: as §2

H. pylori ATCC 43629 = assay type: cell-based, Helicobacter pylori
Description: as §2

[3] = tested on: H. pylori clinical isolate CI-HC-028; experiment: Anti-H. pylori assessment in vitro (MIC), Example 2; assay type: cell-based, Helicobacter pylori; details: NE: No effect
Description: as §2

H. pylori [4] = experiment: Dose and time-dependent killing by TP4; assay type: cell-based, Helicobacter pylori; details: at 2×MIC
Description: as §1

[5] = Sub-acute oral toxicity of Epi-1; assay type: in vivo, mice
Description: Sub-acute oral toxicity was assessed with over a test period of 14 days in which mice were given 600 μg/mouse/day. During the study period, animals were observed daily for clinical signs and mortality.

[6] = 2.5 mg applied to skin, daily for 7 days, Balb/c mice
Description: Dermal toxicity was assessed in Balb/c mice, through administering daily doses of Epi-1 (2.5 mg/animal) for 7 days [40, 41]. Animals were kept under observation for a minimum of 48 h. Skin abnormalities were recorded.

[7] = Acute oral toxicity of Epi-1; assay type: in vivo; details: 125 mg/kg, mice
Description: Acute oral toxicity was assessed in mice with 6 animals per group, by single oral administration of Epi-1 at 125 mg/kg body weight. Animals were placed under observation for about 48 hr. The mortality, morbidity rate, and clinical signs were recorded.

[8] = Eye irritation test of Epi-1 in rabbits; details: for Reversibility: 7 days then recovery
Description: This study used healthy young adults of the New Zealand white albino rabbit breed. […] The eyes were examined on days 1, 3, 5, and 7, and then allowed to recover until day 14; at this time, clinical observation scores were recorded, and grades assigned for ocular reactions observed during each examination.

H. pylori [9] = experiment: Transmission electron microscopy (Epi-1); assay type: cell-based, Helicobacter pylori
Description: Transmission electron microscopy was used to examine Epi-1 induced morphological changes of H. pylori. The samples were fixed and processed as previously described. All samples were examined with an FEI Tecnai G2 F20 S-TWIN transmission electron microscope (FEI Company, Hillsboro, Oreg.) operating at an accelerating voltage of 80 kV. Images were recorded with a charge-coupled device camera at various magnifications.

H. pylori [10] = experiment: Transmission electron microscopy (TP4); assay type: cell-based, Helicobacter pylori; details: 2 h post exposure
Description: Transmission electron microscopy (TEM) was used to examine the TP4 mechanism of action on H. pylori, overall cell morphology, TP4 translocation into H. pylori, and interaction of TP4 with internal targets. H. pylori overnight cultures from BHI-blood agar plates were collected, and 0.1 OD inocula were incubated with TP4, Amoxicillin, and/or PBS (PBS only: negative control). […] The cells were then fixed and processed for TEM using previously described methods, with some modifications. Briefly, cells were dehydrated in a graduated series of ethanol, followed by resin polymerization at 65° C. for 3 days. An EM ultramicrotome was used to slice thin sections of 70- to 80-nm thickness from the polymerized blocks, which were then loaded on 400-mesh copper grids. The sections were post stained with 2% uranyl acetate for 15 min and then lead citrate for 5 min, before being mounted for observation using an FEI Tecnai G2 F20 S-TWIN transmission electron microscope (FEI Company, Hillsboro, Oreg.) operating at 80 keV. […] Each grid was scrutinized with the same settings. Images were recorded with a 4MP SPOT Insight charge-coupled-device (CCD) camera.

[11] = Eye irritation test of TP4 in New Zealand White rabbits; assay type: in vivo; details: for ocular appearance: rabbits treated with 50 mg/kg TP4 or SDS for 7 days, observed daily (FIG. 17A); for Abnormality iris, grading / Chemosis, grading / Conjunctivae redness, grading / Corneal opacity, grading: rabbits, OECD 405 grading
Description: Healthy young adults rabbit eyes were treated with TP4, PBS (vehicle control), or 0.1% SDS (positive control). […] […] Clinical signs were recorded during the test period, and grades were assigned for ocular reactions during examination.

Dermal toxicity of TP4 = assay type: in vivo, C3H/HeN mice; details: for appearance of the skin: mice, 48 h post-exposure, 125 mg/kg TP4 or 20% SDS (FIG. 17B)
Description: TP4 (125 mg/kg) was applied onto the mouse skin (topical).

[12] = Acute oral toxicity of TP4; set-up: species or system C3H/HeN mice; details: single oral dose, 10-fold the in vivo therapeutic dose, 24 hours
Description: (§3) Acute toxicity was assessed in C3H/HeN mice with 6 animals per group, by single oral administration of TP4 (125 mg/kg). […] Subacute toxicity: animals were administered with TP4 (600 μg dose/day) for 14 days. During dose administration, the animals were observed every day for any signs of toxicity for 28 days test period. The morbidity, mortality, and other clinical signs were recorded and assessed.

[13] = Sub-acute oral toxicity of TP4; assay type: in vivo, C3H/HeN mice; details: 3-fold therapeutic doses orally for 14 days, observed days 1 to 28
Description: as §3

Cc1ncc([N+](=O)[O-])n1CCO [metronidazole]
drug resistance index (MICp/MICs) (H. pylori [1]): gradually increased from passage 3 to the last passage
course of cell count ([2]; 24 h): initial decrease in cell count, but gradually lost activity

QLQGKQVSGEVVQKVLQELIQSVAKP [TP5]
MIC (H. pylori ATCC 700392): >12 µg/mL
MIC (H. pylori ATCC 43504): >12 µg/mL
MIC (H. pylori ATCC 43629): >12 µg/mL
MIC [3]: >12 µg/mL

FIHHIIGGLFSAGKAIHRLIRRRRR [TP4, Nile tilapia piscidin 4] [listing 1 of 2 here]
dose dependent effect against H. pylori (killing) (H. pylori [4]): 99.99%
MIC (H. pylori ATCC 700392): 1.5 to 3 µg/mL
MIC (H. pylori ATCC 43504): 1.5 to 3 µg/mL
MIC (H. pylori ATCC 43629): 1.5 to 3 µg/mL
MIC [3]: 1.5 to 3 µg/mL

GFIFHIIKGLFHAGKMIHGLV-NH2 [Epi-1, Epinecidin-1]
whole blood biochemistry (GOT, GPT, BUN, CRE, TBIL, UA) ([5]; after acute and sub-acute oral administration): no significant changes
clinical abnormalities, morbidity, death ([5]; sub-acute oral, 600 μg/mice): did not induce any clinical abnormalities, morbidity, or death
dermal irritation, lesions, clinical signs [6]: did not cause any irritation, lesions, or clinical signs
clinical abnormalities, morbidity, death [7]: did not induce any clinical abnormalities, morbidity, or death
ocular signs ([8]; days 2 and 3, 1 mg/eye/day): signs of lacrimation
Corneal opacity, Grade ([8]; rabbit eye, 7 days): 0
Iris lesion, Grade ([8]; rabbit eye, 7 days): 0
Redness of conjunctivae, Grade ([8]; rabbit eye, 7 days): 0.1
Reversibility ([8]; rabbit eye): yes

CC1(C)S[C@@H]2[C@H](NC(=O)[C@H](N)c3ccc(O)cc3)C(=O)N2[C@H]1C(=O)O [amoxicillin]
drug resistance index (MICp/MICs) (H. pylori [1]): increased slightly after passage 6, and remained constant thereafter
morphology of H. pylori cells (TEM) (H. pylori [9]): low percentage of coccoid morphology
killing ([2]; within 24 hr): 90%
ultrastructure of H. pylori cells (TEM) (H. pylori [10]): appeared as ‘ghost’ cells, with loose outer membranes

CC[C@H]1OC(=O)[C@H](C)[C@@H](O[C@H]2C[C@@](C)(OC)[C@@H](O)[C@H](C)O2)[C@H](C)[C@@H](O[C@@H]2O[C@H](C)C[C@H](N(C)C)[C@H]2O)[C@](C)(OC)C[C@@H](C)C(=O)[C@H](C)[C@@H](O)[C@]1(C)O [clarithromycin]
drug resistance index (MICp/MICs) (H. pylori [1]): gradually increased from passage 3 to the last passage
time taken to 90% reduction [2]: > 24 h

CCCCCCCCCCCCOS(=O)(=O)[O-].[Na+] [SDS, reference compound]
ocular appearance [11]: severe lacrimation, swelling of the eyelids, and elevated blood vessels in conjunctivae
Abnormality iris, grading ([11]; Day 1): 0
Chemosis, grading ([11]; Day 1): 1.5
Conjunctivae redness, grading ([11]; Day 1): 1
Corneal opacity, grading ([11]; Day 1): 1
Abnormality iris, grading ([11]; Day 3): 0
Chemosis, grading ([11]; Day 3): 1.5
Conjunctivae redness, grading ([11]; Day 3): 1
Corneal opacity, grading ([11]; Day 3): 1
Abnormality iris, grading ([11]; Day 5): 0
Chemosis, grading ([11]; Day 5): 2
Conjunctivae redness, grading ([11]; Day 5): 1
Corneal opacity, grading ([11]; Day 5): 1
Abnormality iris, grading ([11]; Day 7): 0
Chemosis, grading ([11]; Day 7): 2
Conjunctivae redness, grading ([11]; Day 7): 1
Corneal opacity, grading ([11]; Day 7): 1
Abnormality iris, grading ([11]; Recovery, Day 14): 0
Chemosis, grading ([11]; Recovery, Day 14): 1.5
Conjunctivae redness, grading ([11]; Recovery, Day 14): 0.5
Corneal opacity, grading ([11]; Recovery, Day 14): 0.5
Corneal opacity, Grade ([8]; rabbit eye, 7 days): 2
Redness of conjunctivae, Grade ([8]; rabbit eye, 7 days): 1
Reversibility ([8]; rabbit eye): No
Iris lesion, Grade ([8]; rabbit, in vivo): 0
appearance of the skin (Dermal toxicity of TP4): no obvious lesions were observed

FIHHIIGGLFSVGKHIHSLIHGH [TP3]
MIC (H. pylori ATCC 700392): 8 to 12 µg/mL
MIC (H. pylori ATCC 43504): 8 to 12 µg/mL
MIC (H. pylori ATCC 43629): 8 to 12 µg/mL
MIC [3]: 8 to 12 µg/mL

FDWDSVLKGVEGFVRGYF [TP1]
MIC (H. pylori ATCC 700392): >12 µg/mL
MIC (H. pylori ATCC 43504): >12 µg/mL
MIC (H. pylori ATCC 43629): >12 µg/mL

FIHHIIGGLFSAGKAIHRLIRRRRR [TP4, Nile tilapia piscidin 4] [listing 2 of 2 here]
ocular appearance [11]: no ocular lesions were detected
Abnormality iris, grading ([11]; Day 1): 0
Chemosis, grading ([11]; Day 1): 0
Conjunctivae redness, grading ([11]; Day 1): 0
Corneal opacity, grading ([11]; Day 1): 0
Abnormality iris, grading ([11]; Day 3): 0
Chemosis, grading ([11]; Day 3): 0.1
Conjunctivae redness, grading ([11]; Day 3): 0
Corneal opacity, grading ([11]; Day 3): 0
Abnormality iris, grading ([11]; Day 5): 0
Chemosis, grading ([11]; Day 5): 0.1
Conjunctivae redness, grading ([11]; Day 5): 0.1
Corneal opacity, grading ([11]; Day 5): 0.1
Abnormality iris, grading ([11]; Day 7): 0
Chemosis, grading ([11]; Day 7): 0.1
Conjunctivae redness, grading ([11]; Day 7): 0
Corneal opacity, grading ([11]; Day 7): 0.1
Abnormality iris, grading ([11]; Recovery, Day 14): 0
Chemosis, grading ([11]; Recovery, Day 14): 0
Conjunctivae redness, grading ([11]; Recovery, Day 14): 0
Corneal opacity, grading ([11]; Recovery, Day 14): 0
clinical signs, acute oral toxicity [12]: did not exhibit any abnormal clinical signs
clinical complications, sub-acute oral toxicity [13]: did not induce clinical complications
dermal toxicity (Dermal toxicity of TP4; dermal exposure, 14 days observation period): No mortality or damaging effects were observed
appearance of the skin (Dermal toxicity of TP4): no obvious lesions were observed
